From patent publication US10729680B2, “5-substituted 2-(morpholin-4-yl)-1,7-naphthyridines” (BAYER PHARMA AKTIENGESELLSCHAFT, priority 2016, dated 2020)

Columns and labels:
[1] = target: full-length human ATR protein (ATR/ATRIP) (Homo sapiens (Human), UniProt Q13535); assay: Binding Assay ATR (TR-FRET, tracer A displacement); conditions: displacement of fluorescent tracer A from GST-ATR/ATRIP
Excerpt: To determine of binding activity of the test compounds, full-length human ATR protein was expressed and purified together with ATRIP as described above. Furthermore, a fluorescently labelled compound (tracer A as described above) was used as a tracer molecule. Detection of the binding event of the tracer was achieved by time-resolved fluorescence energy transfer (TR-FRET). We used an anti-GST-Terbium antibody (CisBio) that binds to the GST-tag at the N-terminus of ATR-kinase. Excitation of Terbium with 337 nm light results in emission of fluorescent light with 545 nm. In case a tetrameric complex has formed (antiGST-Tb+GST-ATR+Strp2-ATRIP+tracer), part of the energy will be transferred from the Terbium to the fluorophore that itself emits light of 570 nm. Displacement of the fluorescent tracer by a test compound leads to a reduction of the TR-FRET-signal.
For the assay 50 nl of a 100-fold concentrated solution of the test compound in DMSO was pipetted into a black low volume 384 well microtiter plate (MTP, Greiner Bio-One, Frickenhausen, Germany). To prepare the ATR-working solution, ATR/ATRIP stock solution was diluted in assay buffer [50 mM HEPES (pH 7.0), 10 mM MgCl2, 1 mM DTT, 0.01% (w/v) Igepal, 0.01% (w/v) BSA] to 4.2 nM protein concentration (concentration may vary from lot to lot of protein preparation). AntiGST-Tb antibody was diluted to 4.2 nM. The ATR-working solution was incubated for 30 min at 22° C. prior to dispensing to pre-form the complex of antiGST-Tb+GST-ATR+ATRIP. Then, 3 μl of the ATR-working solution were added to the test compound and the mixture was incubated for 10 min at 22° C. to allow pre-binding of the test compounds to ATR/ATRIP. Then, 2 μl of a 100 nM solution of tracer A in assay buffer were added to the ATR-working solution. The resulting mixture was incubated for 30 min at 22° C. The measurement of the TR-FRET signal was performed in a standard HTRF-compatible MTP reader instrument (e.g. BMG Pherastar) by recording the fluorescence emissions at 545 nm and 570 nm after excitation at 337-350 nm. The ratio between emission at 570 nm divided by emission at 545 nm was calculated to give the well ratio. The experimental data (well ratios) were normalised by the following way: positive control contained ATR-working solution plus tracer A solution (=0% inhibition), the negative control contained all components except GST-ATR/ATRIP (=100% inhibition). Usually the compounds were tested on the same MTP in 11 different concentrations in the range of 20 μM to 0.1 nM (20 μM, 5.9 μM, 1.7 μM, 0.51 μM, 0.15 μM, 44 nM, 13 nM, 3.8 nM, 1.1 nM, 0.33 nM and 0.1 nM). The dilution series were prepared separately before the assay on the level of the 100 fold concentrated solutions in DMSO by serial 1:3.4 dilutions in duplicate values for each concentration. IC50 values were calculated by a 4 parameter fit using standard software (GraphPad prism or equivalent).

HeLa cells = assay: Proliferation assay (HeLa, crystal violet); type: cell-based; conditions: Homo sapiens, 96 h, 4 days incubation, crystal violet staining, read-out: Inhibition of HeLa cell proliferation
Procedure: Human tumour cells were originally obtained from the American Type Culture Collection (ATCC), the Deutsche Sammlung von Mikroorganismen und Zellkulturen (DSMZ, German Collection of Microorganisms and Cell Cultures) or Epo GmbH, Berlin.
Adherently growing cells (HeLa, HeLa-MaTu-ADR, HT-144, Lovo, HT-29, NCI-H460, DU145, Caco2, B16F10) were plated out in a density of 1500-4000 cells/measurement point, depending on the rate of growth of the cell line, in a 96-well multititre plate in 200 μl of growth medium (DMEM/HAMS F12, 2 mM L-glutamine, 10% foetal calf serum). After 24 hours, the cells of one plate (zero plate) were dyed with crystal violet (see below), whereas the medium of the other plates was replaced with fresh culture medium (200 μl) to which the test substances were added in various concentrations (0 μM, and also in the range of 0.001-10 μM; the final concentration of the solvent dimethyl sulphoxide was 0.1 or 0.5%). The cells were incubated for 4 days in the presence of the test substances. Cell proliferation was determined by staining the cells with crystal violet: the cells were fixed at room temperature for 15 min by adding 20 μl/measurement point of an 11% strength glutaraldehyde solution. After washing the fixed cells three times with water, the plates were dried at room temperature. The cells were stained by adding 100 μl/measurement point of a 0.1% strength crystal violet solution (pH adjusted to pH 3 by adding acetic acid). After washing the cells three times with water, the plates were dried at room temperature. The dye was dissolved by adding 100 μl/measurement point of a 10% strength acetic acid solution. Absorbance was determined photometrically at a wavelength of 595 nm. The percentage change in cell growth was calculated by normalizing the measured values to the absorbance values of the zero plate (=0%) and the absorbance of the untreated (0 μM) cells (=100%). The IC50 values were determined by means of a four parameter fit.
Inhibition of proliferation of HeLa cells by compounds according to the present invention, determined as described above. All IC50 (inhibitory concentration at 50% of maximal effect) values are indicated in M, “n.t.” means that the compounds have not been tested in the respective assay.

full-length human ATR protein (ATR/ATRIP), sequence (Q13535 other isoform, or with tags, fused parts or gaps): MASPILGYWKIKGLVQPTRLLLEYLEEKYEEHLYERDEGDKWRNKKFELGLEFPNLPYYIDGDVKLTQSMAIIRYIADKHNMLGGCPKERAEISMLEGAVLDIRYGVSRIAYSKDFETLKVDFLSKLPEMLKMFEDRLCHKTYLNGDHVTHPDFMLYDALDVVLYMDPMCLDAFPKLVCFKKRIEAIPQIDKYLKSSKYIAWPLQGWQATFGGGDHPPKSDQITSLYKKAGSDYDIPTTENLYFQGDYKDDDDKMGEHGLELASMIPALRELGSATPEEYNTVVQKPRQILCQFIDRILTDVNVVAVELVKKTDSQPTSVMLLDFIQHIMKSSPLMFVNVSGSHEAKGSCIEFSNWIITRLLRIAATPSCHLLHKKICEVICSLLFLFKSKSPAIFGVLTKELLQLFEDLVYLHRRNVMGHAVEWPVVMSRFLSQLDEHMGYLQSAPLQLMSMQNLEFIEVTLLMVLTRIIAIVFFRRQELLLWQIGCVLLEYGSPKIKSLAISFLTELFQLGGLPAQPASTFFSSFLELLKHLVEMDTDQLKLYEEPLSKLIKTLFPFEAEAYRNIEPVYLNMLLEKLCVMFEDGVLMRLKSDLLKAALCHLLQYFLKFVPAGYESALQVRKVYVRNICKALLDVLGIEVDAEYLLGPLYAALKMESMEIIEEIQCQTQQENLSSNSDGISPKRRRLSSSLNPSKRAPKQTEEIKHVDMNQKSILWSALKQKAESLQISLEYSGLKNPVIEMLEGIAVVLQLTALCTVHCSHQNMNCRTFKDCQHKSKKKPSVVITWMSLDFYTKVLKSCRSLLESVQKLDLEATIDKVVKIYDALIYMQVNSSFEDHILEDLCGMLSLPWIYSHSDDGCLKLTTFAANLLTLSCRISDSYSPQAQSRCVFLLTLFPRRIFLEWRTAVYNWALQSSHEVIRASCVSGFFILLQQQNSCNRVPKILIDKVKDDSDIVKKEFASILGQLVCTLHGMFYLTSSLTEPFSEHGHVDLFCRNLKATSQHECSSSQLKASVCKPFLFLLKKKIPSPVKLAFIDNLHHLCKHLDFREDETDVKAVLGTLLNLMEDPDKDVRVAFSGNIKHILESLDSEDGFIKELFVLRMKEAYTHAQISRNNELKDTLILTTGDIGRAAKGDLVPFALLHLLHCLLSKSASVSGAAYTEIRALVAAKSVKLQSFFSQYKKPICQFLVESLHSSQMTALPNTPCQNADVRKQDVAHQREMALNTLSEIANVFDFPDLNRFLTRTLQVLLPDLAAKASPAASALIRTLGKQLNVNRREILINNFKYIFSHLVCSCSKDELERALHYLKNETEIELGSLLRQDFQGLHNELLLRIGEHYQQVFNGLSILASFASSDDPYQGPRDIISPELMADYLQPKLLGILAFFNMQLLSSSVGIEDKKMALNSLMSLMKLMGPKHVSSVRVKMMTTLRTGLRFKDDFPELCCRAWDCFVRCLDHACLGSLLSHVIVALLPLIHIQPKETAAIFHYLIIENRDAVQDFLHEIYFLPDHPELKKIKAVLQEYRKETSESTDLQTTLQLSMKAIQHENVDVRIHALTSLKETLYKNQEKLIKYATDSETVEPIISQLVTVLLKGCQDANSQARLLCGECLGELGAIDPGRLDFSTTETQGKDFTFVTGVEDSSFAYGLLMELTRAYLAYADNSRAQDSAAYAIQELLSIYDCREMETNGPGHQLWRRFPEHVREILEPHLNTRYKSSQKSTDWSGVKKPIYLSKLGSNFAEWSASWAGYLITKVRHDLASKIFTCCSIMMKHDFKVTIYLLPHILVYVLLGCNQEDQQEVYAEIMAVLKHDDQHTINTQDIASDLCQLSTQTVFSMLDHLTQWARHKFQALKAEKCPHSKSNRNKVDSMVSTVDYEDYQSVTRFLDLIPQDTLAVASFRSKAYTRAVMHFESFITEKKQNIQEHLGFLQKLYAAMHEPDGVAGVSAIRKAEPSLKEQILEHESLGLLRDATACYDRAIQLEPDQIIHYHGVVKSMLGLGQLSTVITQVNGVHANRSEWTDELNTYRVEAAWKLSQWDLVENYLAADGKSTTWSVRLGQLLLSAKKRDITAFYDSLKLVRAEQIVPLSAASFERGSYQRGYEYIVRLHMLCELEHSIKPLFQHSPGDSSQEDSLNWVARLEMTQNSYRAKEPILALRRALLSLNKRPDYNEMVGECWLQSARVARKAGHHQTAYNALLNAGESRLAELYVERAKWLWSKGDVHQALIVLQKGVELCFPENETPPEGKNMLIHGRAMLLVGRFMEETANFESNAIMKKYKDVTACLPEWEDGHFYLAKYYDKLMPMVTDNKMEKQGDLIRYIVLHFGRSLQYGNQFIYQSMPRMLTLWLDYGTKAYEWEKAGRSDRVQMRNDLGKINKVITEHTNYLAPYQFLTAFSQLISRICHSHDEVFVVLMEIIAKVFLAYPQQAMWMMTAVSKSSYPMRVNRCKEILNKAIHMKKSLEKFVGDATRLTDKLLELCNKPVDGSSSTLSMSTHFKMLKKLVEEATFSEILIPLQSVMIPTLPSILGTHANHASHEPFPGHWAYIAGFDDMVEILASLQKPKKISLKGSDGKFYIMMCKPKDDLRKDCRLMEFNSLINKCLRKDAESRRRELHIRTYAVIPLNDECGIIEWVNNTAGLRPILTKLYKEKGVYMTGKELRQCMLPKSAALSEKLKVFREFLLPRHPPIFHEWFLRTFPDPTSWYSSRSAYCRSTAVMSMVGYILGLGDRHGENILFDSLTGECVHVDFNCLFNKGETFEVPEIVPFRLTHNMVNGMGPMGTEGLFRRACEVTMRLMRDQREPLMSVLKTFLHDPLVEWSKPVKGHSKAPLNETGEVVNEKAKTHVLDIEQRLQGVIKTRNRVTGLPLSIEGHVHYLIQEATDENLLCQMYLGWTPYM
full-length human ATR protein (ATR/ATRIP), sequence (Q8WXE1 other isoform, or with tags, fused parts or gaps partner): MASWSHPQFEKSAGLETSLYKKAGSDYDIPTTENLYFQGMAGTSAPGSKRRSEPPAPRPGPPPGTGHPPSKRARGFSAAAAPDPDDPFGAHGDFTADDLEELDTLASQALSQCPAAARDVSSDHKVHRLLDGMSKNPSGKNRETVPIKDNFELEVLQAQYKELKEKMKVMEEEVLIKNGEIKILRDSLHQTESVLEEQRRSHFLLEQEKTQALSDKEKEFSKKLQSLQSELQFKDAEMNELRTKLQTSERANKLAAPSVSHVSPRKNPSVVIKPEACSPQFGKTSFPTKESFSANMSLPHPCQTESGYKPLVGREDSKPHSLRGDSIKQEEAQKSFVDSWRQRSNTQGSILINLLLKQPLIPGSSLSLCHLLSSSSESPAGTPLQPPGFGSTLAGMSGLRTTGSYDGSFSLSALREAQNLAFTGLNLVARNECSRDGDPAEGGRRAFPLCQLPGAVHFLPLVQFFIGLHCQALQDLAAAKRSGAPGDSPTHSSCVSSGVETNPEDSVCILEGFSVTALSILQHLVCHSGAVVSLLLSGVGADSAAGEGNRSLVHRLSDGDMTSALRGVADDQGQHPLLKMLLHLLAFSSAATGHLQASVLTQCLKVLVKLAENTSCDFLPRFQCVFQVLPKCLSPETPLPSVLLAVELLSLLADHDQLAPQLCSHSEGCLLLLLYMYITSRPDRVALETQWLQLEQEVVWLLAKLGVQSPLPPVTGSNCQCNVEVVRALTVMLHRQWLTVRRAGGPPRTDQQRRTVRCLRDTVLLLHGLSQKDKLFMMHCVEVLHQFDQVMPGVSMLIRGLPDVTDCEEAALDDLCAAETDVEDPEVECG

Compound | IC50 [1] [nM] | IC50 (HeLa cells) [nM]
Cc1cnc(-c2ccn[nH]2)c2nc(N3CCOC[C@H]3C)cc(-c3cccnc3F)c12 [Example 3, 4-(2-fluoropyridin-3-yl)-5-methyl-2-[(3R)-3-methylmorpholin-4-yl]-8-(1H-pyrazol-5-yl)-1,7-naphthyridine] | 8.13 | 154
Cc1nc(S(C)(=O)=O)ccc1-c1cc(N2CCOC[C@H]2C)nc2c(-c3ccn[nH]3)ncc(C)c12 [Example 4, 5-methyl-4-[2-methyl-6-(methylsulfonyl)pyridin-3-yl]-2-[(3R)-3-methylmorpholin-4-yl]-8-(1H-pyrazol-5-yl)-1,7-naphthyridine] | 37.3 | 333
Cc1cnc(-c2ccn[nH]2)c2nc(N3CCOC[C@H]3C)cc(-c3cnc(Cl)n3C)c12 [Example 5, 4-(2-chloro-1-methyl-1H-imidazol-5-yl)-5-methyl-2-[(3R)-3-methylmorpholin-4-yl]-8-(1H-pyrazol-5-yl)-1,7-naphthyridine] | 5.07 | 85.1
Cc1cnc(-c2ccn[nH]2)c2nc(N3CCOC[C@H]3C)cc(-c3ccc(N4CCNCC4)cc3F)c12 [Example 6, 4-[2-fluoro-4-(piperazin-1-yl)phenyl]-5-methyl-2-[(3R)-3-methylmorpholin-4-yl]-8-(1H-pyrazol-5-yl)-1,7-naphthyridine] | 14.2 | 296
Cc1cnc(-c2ccn[nH]2)c2nc(N3CCOC[C@H]3C)cc(-c3cccc(F)c3F)c12 [Example 7, 4-(2,3-difluorophenyl)-5-methyl-2-[(3R)-3-methylmorpholin-4-yl]-8-(1H-pyrazol-5-yl)-1,7-naphthyridine] | 8.27 | 499
Cc1cnc(-c2ccn[nH]2)c2nc(N3CCOC[C@H]3C)cc(N=S3(=O)CCCC3)c12 [Example 8, N-5-methyl-2-[(3R)-3-methylmorpholin-4-yl]-8-(1H-pyrazol-5-yl)-1,7-naphthyridin-4-yltetrahydro-1H-1λ^4-thiophen-1-imine 1-oxide] | 35.5 | 473
CCS(=O)(CC)=Nc1cc(N2CCOC[C@H]2C)nc2c(-c3ccn[nH]3)ncc(C)c12 [Example 9, 4-[diethyl(oxido)-λ^6-sulfanylidene]amino-5-methyl-2-[(3R)-3-methylmorpholin-4-yl]-8-(1H-pyrazol-5-yl)-1,7-naphthyridine] | 14.1 | 117
Cc1cnc(-c2ccn[nH]2)c2nc(N3CCOC[C@H]3C)cc(N3CCOCC3)c12 [Example 10, 5-methyl-2-[(3R)-3-methylmorpholin-4-yl]-4-(morpholin-4-yl)-8-(1H-pyrazol-5-yl)-1,7-naphthyridine] | 8.91 | 109
Cc1cnc(-c2ccn[nH]2)c2nc(N3CCOC[C@H]3C)cc(N3CCC(CO)CC3)c12 [Example 11, (1-{5-methyl-2-[(3R)-3-methylmorpholin-4-yl]-8-(1H-pyrazol-5-yl)-1,7-naphthyridin-4-yl}piperidin-4-yl)methanol] | 3.8 | 33.2
Cc1cnc(-c2ccn[nH]2)c2nc(N3CCOC[C@H]3C)cc(N3CCN(S(C)(=O)=O)CC3)c12 [Example 12, 5-methyl-2-[(3R)-3-methylmorpholin-4-yl]-4-[4-(methylsulfonyl)piperazin-1-yl]-8-(1H-pyrazol-5-yl)-1,7-naphthyridine] | 5.49 | 440
Cc1cnc(-c2ccn[nH]2)c2nc(N3CCOC[C@H]3C)cc(N(C)CC(C)(C)C)c12 [Example 13, N-(2,2-dimethylpropyl)-N,5-dimethyl-2-[(3R)-3-methylmorpholin-4-yl]-8-(1H-pyrazol-5-yl)-1,7-naphthyridin-4-amine] | 4.93 | 745
COC(=O)c1cc(N2CCOC[C@H]2C)nc2c(-c3ccn[nH]3)ncc(C)c12 [Example 14, methyl 5-methyl-2-[(3R)-3-methylmorpholin-4-yl]-8-(1H-pyrazol-5-yl)-1,7-naphthyridine-4-carboxylate] | 53 | 440
Cc1cnc(-c2ccn[nH]2)c2nc(N3CCOC[C@H]3C)cc(-c3cncn3C)c12 [Example 15, 5-methyl-4-(1-methyl-1H-imidazol-5-yl)-2-[(3R)-3-methylmorpholin-4-yl]-8-(1H-pyrazol-5-yl)-1,7-naphthyridine] | 5.86 | 145
Cc1ncc(-c2cc(N3CCOC[C@H]3C)nc3c(-c4ccn[nH]4)ncc(C)c23)s1 [Example 16, 5-methyl-2-[(3R)-3-methylmorpholin-4-yl]-4-(2-methyl-1,3-thiazol-5-yl)-8-(1H-pyrazol-5-yl)-1,7-naphthyridine] | 14.2 | 33.9
CCOP(C)(=O)c1cc(N2CCOC[C@H]2C)nc2c(-c3ccn[nH]3)ncc(C)c12 (stereo partly drawn) [Example 17, ethyl methyl{5-methyl-2-[(3R)-3-methylmorpholin-4-yl]-8-(1H-pyrazol-5-yl)-1,7-naphthyridin-4-yl}phosphinate] | 42.2 | 112
